“Also recorded” adds a separate entry of the source. Where no end group is shown, it is not given here. The star is where a group is joined. For = O=C*
Tested on: OVA-sensitized/challenged mice
Experiment: OVA allergen-induced airway inflammation mouse model, 28-day protocol, HK-X i.n. before each challenge
Format: in vivo
From the text: The above-described murine model reproduces key features of human asthma. Late-phase allergen-specific pulmonary disease was induced in normal BALB/c mice using ovalbumin (OVA) as allergen. One protocol includes immunization of mice with i.p. OVA on […] and 14, and intranasal (i.n.) administration of OVA on days 14, 25, 26, and 27.
In a mouse model of allergen-induced airway inflammation, the role of mast cell in airway eosinophil infiltration, mucus release, and hyper-responsiveness to methacholine was examined.
Materials were used as described above. Mice received an i.p. injection of 0.2 ml (100 ug) of OVA complexed with aluminum potassium sulfate (alum) on day 0 and 14. On days 14, 25, 26, and 27, mice were anesthetized with 0.2 ml i.p. of ketamine (0.44 mg/ml)/xylazine (6.3 mg/ml) in normal saline before receiving an intranasal (i.n.) dose of 100 ug OVA in 0.05 ml normal saline on days 25, 26, and 27. Lung tissue was obtained 24 hours after the last i.n. challenge on day 28. The control group received normal saline with alum i.p. on days 0 and 14 and normal saline without alum i.n. on days 14, 25, 26, and 27. To assess the effect of HK-X inhibition on OVA induced asthma, HK-X (10 ug/ml) was given i.n. 30 minutes before each i.n challenge on days 25, 26, and 27.
After tying off the left lung at the mainstem bronchus, the right lung was […] three times with 0.4 ml of normal saline, Bronchoalveolar lavage (BAL) fluid cells from a 0.05 ml aliquot of the pooled sample were counted using a hemocytometer and the remaining fluid centrifuged at 4° C. for 10 minutes at 200 g. After resuspension of the cell pellet in normal saline containing 10% BSA, BAL cell smears were made on glass slides. To stain eosinophils, dried slides were stained with Discombe's diluting fluid (0.05% aqueous eosin and 5% (v/v) acetone in distilled water) for 5-8 minutes, rinsed with water for 0.5 minutes and counterstained with 0.07 methylene blue for 2 minutes.
Following BAL, the trachea and left lung (upper and lower lobes) were obtained and fixed in 10% buffered formalin solution at 20° C. for1S hours. After the tissues were processed and embeded in paraffin, the tissues were cut into 5 μm sections and stained with Discombe's solution and counterstained with methylene blue as described above or stained with Hematoxylin and eosin. The eosinophil number per unit airway area (2200 μm^2) was determined by morphometry as previously described. Airway mucus was identified by a variety of staining methods, i.e., methylene blue, Hematoxylin and eosin, mucicarmine, toluidine blue, alcian blue, and alcian blue/periodic acid Schiff (PAS) reaction. Mucin was stained with mucicarmine solution; metanil yellow counterstain was employed. Mucin and sialic acid-rich non-sulfated mucosubstances were stained metachromatically with toluidine blue, pH 4.5. Acidic mucin and sulfated mucosubstances were stained with alcian blue, pH 2.5; nuclear fast red counterstain was used. Neutral and acidic mucosubstances were identified by alcian blue, pH 2.5 and PAS reaction. The degree of mucus plugging of the airways (0.5˜0.8 mm in diameter) also was assessed by morphometry. The percent occlusion of airway diameter by mucus was classified on a semiquantitative scale from 0 to +++++. The histologic and morphometric analyses protocol design were performed by individuals blinded to the protocol design.
Mucus glycoproteins in BAL fluid were assayed by slot blotting and PAS staining as described. Nitrocellulose membranes (0.2 um pore size; Schleicher & Schuell, Keene, N.H.) were wetted in distilled water and then in normal saline before placement in a Minifold II 72-well slot blot apparatus (Schleicher & Schuell). The BAL fluid samples (0.05 ml) and aliquots (0.05-0.75 ml) of a stock solution (2 ug/ml) of human respiratory mucin glycoprotein were blotted onto the nitrocellulose membranes by water suction vacuum, and mucus glycoproteins were visualized by PAS reaction. […]

In the case of “f-Met-Leu-Phe-Phe (For-MLFF) [Example 9]”, the “cellular infiltration during asthmatic attack” value (10 μg HK-X intranasally 30 minutes prior to challenge, FIG. 9) is reported as “reduces the cellular infiltration”, the “eosinophil influx into lung tissue and BAL fluid” value (HK-X 10 ug/ml i.n. 30 minutes before each i.n. challenge, day 28) is reported as “markedly reduced eosinophil influx into the lung tissue and BAL fluid” and the “airway mucus release / secretion” value (HK-X i.n. 30 minutes before each OVA challenge days 25, 26, 27, histopathology, listed as HK-X) is reported as “prevented airway mucus release; also recorded: blocked the airway mucus release; also recorded: prevents the airway mucus secretion; also recorded: reduces the mucus secretion in airways”. For the same substance, the “number of eosinophils in the BAL fluid” value (OVA-sensitized/challenged mice treated with HK-X, in ×10^5 cells) was 0.57+0.11 ×10^5, the “mucus cell induction by OVA immunization and challenge” value (alcian blue histochemistry, FIG. 10) was “prevents the mucus cell induction by OVA immunization and challenge” and the “reduction of eosinophil influx into the lung interstitium” value (morphometric analysis, p<0.006 compared to OVA without HK-X, FIG. 11) was 90%.
